As usually defined, the AUC is the area under the concentration-time curve, a measure of exposure. Read a low AUC as low exposure. The term AUC(0-t) denotes the area under the concentration-time curve up to a stated or last time point. The term Cmax denotes the peak of the concentration-time curve. Broadly, the Tmax is the time at which the peak concentration occurs. For orientation: half-life means the time needed for the level to fall by half in the phase considered. Usually IC50 stands for the concentration that gives 50% inhibition. A low value points to greater potency. Usually inhibition stands for how much of the control response was suppressed.

The values that follow come from patent US11612661B2 (priority 2019, dated 2023).

Each structure is given as a SMILES string. Where “and” joins values, the source holds several entries; their conditions need not be identical. Identical values can stand only once. Bridge positions count the residues as written; N and C are the ends. Square brackets hold non-standard residues; d marks the D form. Triazole bridges read from a SMILES are 1,4-linked. Peptide text beside a SMILES is read from it. Orn(N3) = [N-]=[N+]=NCCC[C@H](N)C(=O)O; Cit = NC(=O)NCCC[C@H](N)C(=O)O; Pra = C#CC[C@H](N)C(=O)O

In one data set the test system is α9α10 nAChR. To be noted: cited from earlier work.
A short description of the next data set: in vivo. To be noted: male, Sprague Dawley, rat, sc, 1 mg/kg.
In data set [1] the test system is oxaliplatin-induced peripheral neuropathy. The arrangement: species or system Sprague Dawley rats. To be noted: in vivo.
For data set [2] the following is noted: 24 h.
The target of another data set is human α9α10 nAChR (Homo sapiens, UniProt Q9GZZ6+Q9UGM1). Nature of the data set: cell-based. The data set is classed as cell-based.
The target of a further data set is rat α9α10 nAChR (Rattus norvegicus, UniProt P43144+Q9JLB5). Put plainly: cell-based. To be noted: for IC50: α9α10 nAChR IC50 (nM) Rat. The data set is classed as cell-based.
The conditions of data set [3]: rat, in vivo, 1 mg/kg, 1 h.
The subject of the next data set is spared nerve injury. The arrangement: species or system rats. To be noted: rat, in vivo, 0.5 mg/kg.
The target of another data set is α7 nAChR (Homo sapiens, UniProt P36544). To be noted: read-out: Partial inhibition of the α7 nAChR.
Data set [4] relates to 88 receptors, transporters, enzymes and kinases.

Chain of human α9α10 nAChR (Q9UGM1 26-479 limits assumed): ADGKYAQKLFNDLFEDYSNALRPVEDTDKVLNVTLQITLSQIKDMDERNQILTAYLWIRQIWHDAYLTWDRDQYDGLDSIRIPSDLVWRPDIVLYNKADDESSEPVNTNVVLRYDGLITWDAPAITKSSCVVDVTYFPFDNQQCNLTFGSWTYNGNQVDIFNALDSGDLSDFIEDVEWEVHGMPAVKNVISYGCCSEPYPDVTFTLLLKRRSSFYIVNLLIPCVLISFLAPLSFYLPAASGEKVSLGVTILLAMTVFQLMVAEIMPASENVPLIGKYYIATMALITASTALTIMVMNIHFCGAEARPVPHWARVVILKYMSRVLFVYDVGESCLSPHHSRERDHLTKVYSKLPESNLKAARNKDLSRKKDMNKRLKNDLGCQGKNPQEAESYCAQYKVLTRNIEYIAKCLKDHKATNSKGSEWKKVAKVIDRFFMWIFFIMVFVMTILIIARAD
Chain of human α9α10 nAChR (Q9GZZ6 25-450 limits assumed): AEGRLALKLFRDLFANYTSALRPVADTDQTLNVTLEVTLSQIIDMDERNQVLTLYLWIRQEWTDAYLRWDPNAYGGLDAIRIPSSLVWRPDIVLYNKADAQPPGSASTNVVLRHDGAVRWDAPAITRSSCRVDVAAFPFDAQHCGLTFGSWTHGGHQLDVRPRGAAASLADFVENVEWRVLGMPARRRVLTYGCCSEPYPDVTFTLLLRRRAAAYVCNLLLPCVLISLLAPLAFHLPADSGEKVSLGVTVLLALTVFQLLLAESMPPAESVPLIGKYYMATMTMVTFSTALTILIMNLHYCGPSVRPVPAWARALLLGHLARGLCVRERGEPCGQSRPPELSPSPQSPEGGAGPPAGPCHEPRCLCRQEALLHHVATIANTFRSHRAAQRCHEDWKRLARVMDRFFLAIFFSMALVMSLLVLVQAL
Chain of rat α9α10 nAChR (P43144 26-479 limits assumed): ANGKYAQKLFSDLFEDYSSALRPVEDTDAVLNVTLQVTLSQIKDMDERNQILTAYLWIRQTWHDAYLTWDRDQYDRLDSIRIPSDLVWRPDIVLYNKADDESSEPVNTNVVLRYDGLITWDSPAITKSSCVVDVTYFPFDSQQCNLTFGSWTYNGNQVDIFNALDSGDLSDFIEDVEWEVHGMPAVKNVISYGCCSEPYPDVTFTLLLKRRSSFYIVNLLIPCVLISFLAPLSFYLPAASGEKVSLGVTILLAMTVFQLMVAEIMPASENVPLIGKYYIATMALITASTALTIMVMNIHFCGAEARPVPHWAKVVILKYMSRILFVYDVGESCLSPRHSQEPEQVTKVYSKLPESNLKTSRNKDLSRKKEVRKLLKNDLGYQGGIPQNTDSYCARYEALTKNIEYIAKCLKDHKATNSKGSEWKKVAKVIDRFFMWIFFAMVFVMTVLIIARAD
Chain of rat α9α10 nAChR (Q9JLB5 25-447 limits assumed): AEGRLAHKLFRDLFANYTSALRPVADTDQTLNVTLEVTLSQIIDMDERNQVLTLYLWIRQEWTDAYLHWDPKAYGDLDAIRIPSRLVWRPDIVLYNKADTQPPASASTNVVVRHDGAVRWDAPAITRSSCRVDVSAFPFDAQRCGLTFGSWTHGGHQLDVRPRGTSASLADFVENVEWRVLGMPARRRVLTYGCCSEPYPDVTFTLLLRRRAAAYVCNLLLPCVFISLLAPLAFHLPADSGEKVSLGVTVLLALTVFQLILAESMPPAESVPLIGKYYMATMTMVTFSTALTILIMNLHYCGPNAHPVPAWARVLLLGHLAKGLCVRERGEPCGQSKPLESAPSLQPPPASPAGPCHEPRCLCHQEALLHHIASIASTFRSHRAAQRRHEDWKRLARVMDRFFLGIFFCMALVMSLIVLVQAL
Chain of α7 nAChR (P36544 23-502 limits assumed): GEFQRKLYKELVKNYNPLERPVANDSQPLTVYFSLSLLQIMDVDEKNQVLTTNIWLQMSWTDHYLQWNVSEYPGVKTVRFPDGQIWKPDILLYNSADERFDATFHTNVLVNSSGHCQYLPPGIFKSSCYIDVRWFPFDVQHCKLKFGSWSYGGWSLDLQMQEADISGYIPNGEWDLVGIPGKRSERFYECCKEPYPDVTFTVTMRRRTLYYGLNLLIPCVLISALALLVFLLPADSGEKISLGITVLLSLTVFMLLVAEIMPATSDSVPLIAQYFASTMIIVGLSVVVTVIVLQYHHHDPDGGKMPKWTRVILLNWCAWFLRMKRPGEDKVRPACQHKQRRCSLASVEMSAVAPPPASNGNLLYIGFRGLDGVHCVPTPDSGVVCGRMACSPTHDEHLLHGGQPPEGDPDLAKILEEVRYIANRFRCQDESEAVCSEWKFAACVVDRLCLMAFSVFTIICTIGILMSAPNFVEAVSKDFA

In the case of `N=C(N)NCCC[C@H](NC(=O)[C@@H]1CSSC[C@@H]2NC(=O)[C@@H](NC(=O)CN)CSSC[C@H](NC(=O)[C@H](CCCNC(=N)N)NC(=O)[C@@H]3CCCN3C(=O)[C@H](CC(=O)O)NC(=O)[C@H](CO)NC2=O)C(=O)N[C@@H](CCCNC(=N)N)C(=O)N[C@@H](Cc2ccc(O)cc2)C(=O)N[C@@H](CCCNC(=N)N)C(=O)N1)C(=O)O` [RgIA], the “Lower affinity for the human than the rat α9α10 nAChR” value in the data set with α9α10 nAChR was “approximately 300 fold”.

As for `C[C@@H](O)[C@@H]1NC(=O)[C@@H]2Cc3cn(nn3)CCC[C@@H](C(=O)N[C@@H](Cc3ccc(O)cc3)C(=O)O)NC(=O)[C@H](CCC(N)=O)NC(=O)[C@H](Cc3c[nH]c4ccccc34)NC(=O)[C@H](CCCNC(N)=O)NC(=O)[C@H](CSSC[C@H](NC(=O)CN)C(=O)N2)NC(=O)[C@H](CCCNC(=N)N)NC(=O)[C@@H]2CCCN2C(=O)[C@H](CC(=O)O)NC1=O` [Ia, L-tyrosine, glycyl-L-cysteinyl-L-alanyl-L-threonyl-L-α-aspartyl-L-prolyl-L-arginyl-L-cysteinyl-N5-(aminocarbonyl)-L-ornithyl-L-tryptophyl-L-glutaminyl-L-norvalyl-cyclic (2→8) disulfide-cyclic 3^3,12^5-(1H-1,2,3-triazole-4,1-diyl)] (H-GC[Pra]TDPRC[Cit]WQ[Orn(N3)]Y-OH; disulfide 2-8; triazole 3-12), in the data set “in vivo”, the AUC amounted to 981 ng·h/mL, the exposure AUC(0-t) came to 981 ng·h/mL, the Cmax stood at 648 ng/mL and the Tmax was 15 min. The same compound gave a half-life in the data set “in vivo” of 30 min. In data set [1], the “PD (Rat CIPN) Duration of PD effect” value was in the range of 4 to 24 h and the “PD (Rat CIPN) Required dose to reach max efficacy” value was 0.5 mg/kg. In addition, in data set [1] (rat, 0.5 mg/kg), the “Duration of significant reduction in mechanical hyperalgesia compared to vehicle” value is recorded as “up to 4 h”. Besides, the “Disulfide rearrangement / stability in plasma and serum (in words)” value in data set [2] was “single isolated peak on reverse phase HPLC in rat plasma at 0 h, 8 h and 24 h”. Moreover, the IC50 on human α9α10 nAChR was found to be 0.7 ± 0.03 nM. The compound further yielded an IC50 against rat α9α10 nAChR of 14.3 ± 1.8 nM.

Regarding `C[C@@H](O)[C@@H]1NC(=O)[C@@H]2CSSC[C@@H](C(=O)N[C@@H](Cc3ccc(O)cc3)C(N)=O)NC(=O)[C@H](CCC(N)=O)NC(=O)[C@H](Cc3ccc(O)c(I)c3)NC(=O)[C@H](CCCNC(N)=O)NC(=O)[C@H](CSSC[C@H](NC(=O)CN)C(=O)N2)NC(=O)[C@H](CCCNC(=N)N)NC(=O)[C@@H]2CCCN2C(=O)[C@H](CC(=O)O)NC1=O` [CSP-4-NH2, reference compound], on human α9α10 nAChR, the “Activity on the human α9α10 nAChR (in words)” value is reported as “active”; the “Block of ACh-evoked currents” value is listed as above 99%; the IC50 was 3.5 ± 1.5 nM; the “Percent of 100 μM acetylcholine-induced current remaining in the presence of compound, Mean ± SEM” value is listed as 0.4 ± 0.11%. On rat α9α10 nAChR, the “Activity on the rat α9α10 nAChR (in words)” value is “active” and the IC50 was 0.4 ± 0.2 nM. Further, in [3], the “Recovered peptide from blood remaining in the native form” value is 40-50%.

In the case of `C[C@@H](O)[C@@H]1NC(=O)[C@@H]2Cc3cn(nn3)CCC[C@@H](C(=O)N[C@@H](Cc3ccc(O)cc3)C(N)=O)NC(=O)[C@H](CCC(N)=O)NC(=O)[C@H](Cc3c[nH]c4ccccc34)NC(=O)[C@H](CCCNC(N)=O)NC(=O)[C@H](CSSC[C@H](NC(=O)CN)C(=O)N2)NC(=O)[C@H](CCCNC(=N)N)NC(=O)[C@@H]2CCCN2C(=O)[C@H](CC(=O)O)NC1=O` [Ia′, L-tyrosinamide, glycyl-L-cysteinyl-L-alanyl-L-threonyl-L-α-aspartyl-L-prolyl-L-arginyl-L-cysteinyl-N5-(aminocarbonyl)-L-ornithyl-L-tryptophyl-L-glutaminyl-L-norvalyl-cyclic (2→8)-disulfide-cyclic 3^3,12^5-(1H-1,2,3-triazole-4,1-diyl)] (H-GC[Pra]TDPRC[Cit]WQ[Orn(N3)]Y-NH2; disulfide 2-8; triazole 3-12), the “Duration of significant reduction in mechanical hyperalgesia compared to vehicle” value in [1] (rat, 0.5 mg/kg) is recorded as “up to 24 h”; in the data set on spared nerve injury, “up to 24 h”. For the same compound, the “Mechanical hyperalgesia versus vehicle (in words)” value in data set [1] (rat, sc, 0.5 mg/kg) is listed as “statistically significant improvements in mechanical hyperalgesia”; in the data set with spared nerve injury (sc) it was “statistically significant improvement in mechanical hyperalgesia”. Besides, the concentration for half-maximal inhibition (IC50) was 26 ± 4 nM against human α9α10 nAChR; 12.6 nM and 7.7 nM against rat α9α10 nAChR. For the same compound, the inhibition at 10 µM on α7 nAChR is 52%. The “Off-target effects in panel of 88 receptors, transporters, enzymes and kinases” value in data set [4] was “no off-target effects”.
